Test results published in patent US6316207A, “Mouse cardiac muscle cell line, HL-1” (priority 1999, dated 2001).
Counter-ions that a name gives are not always drawn. Like-named read-outs stand apart in the source and are kept apart here.

How the values were obtained:
guinea pig myocytes = conditions: read-out: Kd for [^3 H]dofetilide binding in guinea pig myocytes, mean+/-SD, n=3, Chadwick et al; cited from earlier work
[1] = tested on: IKr in guinea pig myocytes; conditions: cited from earlier work
[2] = molecular target: T1, [^3 H]dofetilide binding site in HL-1 cells (IKr) (Mus musculus, UniProt O35219); test: biochemical
T1 sequence (O35219 1-1162): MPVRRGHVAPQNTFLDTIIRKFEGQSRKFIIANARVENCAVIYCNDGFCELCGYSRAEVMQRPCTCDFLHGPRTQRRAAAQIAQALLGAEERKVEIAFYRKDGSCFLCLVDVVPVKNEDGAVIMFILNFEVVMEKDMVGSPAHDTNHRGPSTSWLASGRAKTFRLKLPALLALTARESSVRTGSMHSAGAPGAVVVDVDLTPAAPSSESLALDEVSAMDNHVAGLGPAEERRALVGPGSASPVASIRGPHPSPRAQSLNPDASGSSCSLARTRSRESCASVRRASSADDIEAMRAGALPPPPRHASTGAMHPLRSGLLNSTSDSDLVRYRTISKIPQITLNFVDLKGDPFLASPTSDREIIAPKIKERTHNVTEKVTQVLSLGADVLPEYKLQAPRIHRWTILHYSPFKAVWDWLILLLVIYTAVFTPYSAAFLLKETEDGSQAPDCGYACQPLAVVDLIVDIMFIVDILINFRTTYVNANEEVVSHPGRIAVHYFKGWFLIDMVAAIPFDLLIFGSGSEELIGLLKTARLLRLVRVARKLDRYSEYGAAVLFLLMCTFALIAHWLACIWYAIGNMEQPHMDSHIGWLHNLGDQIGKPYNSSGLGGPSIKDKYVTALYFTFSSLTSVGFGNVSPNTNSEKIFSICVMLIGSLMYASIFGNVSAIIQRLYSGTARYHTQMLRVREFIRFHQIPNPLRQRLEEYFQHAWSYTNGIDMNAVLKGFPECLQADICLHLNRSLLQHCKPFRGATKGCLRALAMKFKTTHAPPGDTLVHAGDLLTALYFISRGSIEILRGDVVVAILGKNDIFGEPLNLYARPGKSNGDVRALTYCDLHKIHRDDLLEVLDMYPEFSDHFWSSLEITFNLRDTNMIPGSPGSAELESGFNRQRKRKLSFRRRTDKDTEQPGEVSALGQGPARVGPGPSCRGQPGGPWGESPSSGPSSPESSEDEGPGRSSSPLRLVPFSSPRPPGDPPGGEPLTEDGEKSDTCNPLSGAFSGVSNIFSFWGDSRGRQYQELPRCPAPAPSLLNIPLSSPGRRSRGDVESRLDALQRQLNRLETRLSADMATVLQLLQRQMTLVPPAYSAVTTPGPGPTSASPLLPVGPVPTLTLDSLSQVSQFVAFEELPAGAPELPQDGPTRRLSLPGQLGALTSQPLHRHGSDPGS
Experimental: HL-1 cells from passages 60 to 80 are dissociated from tissue culture flasks with a 5 min incubation with 0.1% trypsin (Clonetics, San Diego) followed by inactivation in a trypsin neutralizing solution (Clonetics, San Diego). The cells are suspended in a buffer containing (mM) KCl 40, KH2 PO4 20, MgCl2 5, KHCO3 0.5, glucose 10, potassium glutamate5 0, potassium asparate 20, EGTA 1 and HEPES (N-[2-Hydroxyethyl]piperazine-N'-[2-ethanesulfonic acid]) 10, adjusted to pH 7.4 with KOH and containing 0.1% bovine serum albumin (BSA). […] The cells are then filtered on GF/C Unifilter® 96 well filter plates (Packard, Meriden, Conn.) using a Packard Micromate496® harvester. Filter plates are presoaked with wash buffer (25 mM Tris-HCl, 130 mM NaCl, 5.5 mM KCl, 0.8 mM MgCl2 and 50 μM CaCl2 [pH 7.4]) containing 1.0% BSA and washed following harvesting at room temperature with four ×1 ml washes of the same buffer without BSA.

[3] = tested on: [^3 H]dofetilide binding site in guinea pig myocytes; conditions: cited from earlier work
[4] = tested on: IKr in rabbit ventricular myocytes; conditions: Carmeliet 1992, read-out: IC50 reported for IKr in rabbit ventricular myocytes; cited from earlier work
HL-1 cells = test: Contractile activity (spontaneous beating) of HL-1 cells; type: cell-based, mouse
Experimental: CONTRACTILE ACTIVITY OF HL-1 CELLS
HL-1 cells are found to respond to several pharmacological agents in a manner expected for cardiomyocytes. Confluent cultures of HL-1 cells at passage 33 in growth medium (without norepinephrine or retinoic acid) display spontaneous contractile activity (beating).
In other experiments, spontaneously beating confluent HL-1 cells in growth medium are stopped by adding propranolol. First, norepinephrine bitartrate is added to a final concentration of 10^-5 M. Under these stimulated conditions, propranolol is subsequently added.
To determine if the effect of 10^-4 M propranolol is reversible, the culture medium containing propranolol is removed and growth medium (without norepinephrine or retinoic acid) is added to the cell cultures.

For [3H]c1cc(OCCN(C)CCc2ccc(NS(C)(=O)=O)cc2)ccc1NS(C)(=O)=O [[^3 H]dofetilide], the Kd (guinea pig myocytes) is given as 0.07 ± 0.006 µM.
For CN1CCN(CCCCN2C(=O)CN(/N=C/c3ccc(-c4ccc(Cl)cc4)o3)C2=O)CC1 [azimilide dihydrochloride], the IC50 ([1]; Fermini et al 1995, read-out: IC50 for blocking the rapidly activating component of the delayed rectifier IKr) is listed as 0.4 µM and the Kd [2] is listed as 0.8 µM.
For CCCCCCC[N+](CC)(CC)CCCCc1ccc(Cl)cc1 [clofilium], the Kd ([3]; cardiac myocytes) is listed as 1.29 µM.
In the case of CN(CCOc1ccc(NS(C)(=O)=O)cc1)CCc1ccc(NS(C)(=O)=O)cc1 [dofetilide], the IC50 [4] is listed as 0.004 µM, the IC50 ([1]; Jurkiewicz and Sanguinetti 1993, read-out: IC50 reported for IKr in guinea pig myocytes) is listed as 0.031 µM and the Kd ([3]; read-out: Kd, competition for [^3 H]dofetilide binding, Cardiac Myocytes, primary guinea pig myocytes, Chadwick et al, SEM and N in own columns) is listed as 0.1 µM.
With NC[C@H](O)c1ccc(O)c(O)c1 [norepinephrine bitartrate] the “contractile activity (beating) of HL-1 cells” value (HL-1 cells; final concentration 10^-5 M, passage 33, within two minutes, growth medium without norepinephrine or retinoic acid) was “beating faster”.
In the case of CC(C)NCC(O)COc1cccc2ccccc12 (centres unmarked) [propranolol], the “time to arrest of all contractions” value (HL-1 cells; final concentration 10^-4 M, after 10^-5 M norepinephrine bitartrate) is reported as at most 10 min, the arrest of contractions (HL-1 cells; final concentration 10^-4 M, after stimulation with 10^-5 M norepinephrine bitartrate, within 10 minutes) is reported as “arrests all contractions” and the “effect on contractile activity” value (HL-1 cells; final concentrations of 10^-7 M, 10^-6 M, and 10^-5 M, after 10^-5 M norepinephrine bitartrate) is reported as “no observable effect”. For the same compound, the “time to recovery of contractile activity after removal of drug” value (HL-1 cells; previously exposed to 10^-4 M (printed 10^31 4 M)) was at most 1 h and the “reversibility: contractile activity after removal of drug” value (HL-1 cells; previously exposed to 10^-4 M (printed 10^31 4 M), within 1 hour after medium change) was “contractile activity similiar to control HL-1 cell not exposed to propranolol”.
In the case of COc1ccc(CCN(C)CCCC(C#N)(c2ccc(OC)c(OC)c2)C(C)C)cc1OC (centres unmarked) [verapamil hydrochloride], the “contractile activity after addition of drug” value (HL-1 cells; final concentrations of 10^-7 M, 10^-6 M and 10^-5 M, growth medium without norepinephrine or retinoic acid) is reported as “no observable contractile activity”.
